Results reported in publication PMC5840262, “Design, Synthesis and Evaluation of Branched RRWQWR-Based Peptides as Antibacterial Agents Against Clinically Relevant Gram-Positive and Gram-Negative Pathogens” (Frontiers in Microbiology, 2018).
≈ marks a conversion by molar mass, not a printed value. Like-named read-outs stand apart in the source and are kept apart here. Bridge positions count the residues as written; N and C are the ends. Square brackets hold non-standard residues; d marks the D form. Ends that are not written are not given here. Peptide text beside a SMILES is read from it. I, II: the chains in the order shown. Ahx = NCCCCCC(=O)O

Tests used:
[1] = tested on: Klebsiella pneumoniae ATCC 700603 (resistant); details: K. pneumoniae ATCC 700603, resistant strain; MIC50 previously obtained with the same assay (M7-A7); ref Leon-Calvijo et al., 2015; cited from earlier work
Source text: Table 6 Therapeutic Index values for the RRWQWR-based peptides against the ATCC strains of HCAI-relevant bacteria. | column: Gram negative / MIC (μM) / ^l700603-^fR

[2] = tested on: E. faecalis ATCC-29212 (sensitive); assay: Scanning electron microscopy of treated bacteria; assay type: cell-based, Enterococcus faecalis; details: 3 × MIC50, 2 h, 37°C
Procedure: (§1) We observed bacterial morphology by SEM. The E. faecalis and P. aeruginosa strains were grown to mid-logarithmic phase, and adjusted spectrophotometrically to a McFarland standard of 0.5 (corresponding to ~1 × 10^8 CFU/mL). Subsequently, 1 mL of bacterial suspension was distributed into three tubes: one tube was treated with (RRWQWR)2KAhx at 3 × the MIC50; another tube, with (RRWQWR)4K2Ahx2C2 at the same concentration; and the third tube was left untreated, as a control. The samples were incubated aerobically at 37°C for 2 h, and the bacterial suspensions were centrifuged at 1,459 × g for 3 min and then, washed twice with Millonig's Phosphate Buffer (0.10 M, pH 7.4). For SEM, each sample was fixed with 1 mL of 2.5% glutaraldehyde at 4°C for 2 h. The fixed samples were dehydrated in an ethanol gradient (50, 70, 80, 90, and 100%) for 20 min and then, centrifuged at 1,459 × g for 10 min. The bacterial pellet was resuspended in 100% ethyl alcohol and air-dried. Finally, the slides were taped onto stubs, coated with gold using a Quorum Q150R sputter coater, and observed with an FEI Quanta 200-r microscope.
We used SEM to study the morphology of bacterial cells before and after treatment with either branched peptide (dimeric and tetrameric). […]

[3] = tested on: P. aeruginosa ATCC-27853 (resistant); assay: Scanning electron microscopy of treated bacteria; assay type: cell-based, Pseudomonas aeruginosa; details: 3 × MIC50, 2 h, 37°C
Procedure: as §1
(§2) We used SEM to study the morphology of bacterial cells before and after treatment with either branched peptide (dimeric and tetrameric). To this end, each strain of E. faecalis and P. aeruginosa was first studied by SEM; then, independently treated in the exponential phase with either peptide at 3 × the corresponding MIC50 value for 2 h (except for the resistant E. faecalis strain, for which a peptide concentration of 200 μM was used); and finally, studied by SEM again.

[4] = tested on: P. aeruginosa ATCC-10145 (sensitive); assay: Scanning electron microscopy of treated bacteria; assay type: cell-based, Pseudomonas aeruginosa; details: 3 × MIC50, 2 h, 37°C
Procedure: as §1, §2

[5] = tested on: Staphylococcus aureus ATCC 25923 (sensitive); details: S. aureus ATCC 25923, sensitive strain; MIC50 previously obtained with the same assay (M7-A7); ref Leon-Calvijo et al., 2015; cited from earlier work
Source text: Table 6 Therapeutic Index values for the RRWQWR-based peptides against the ATCC strains of HCAI-relevant bacteria. | column: Gram positive / MIC (μM) / ^d25923-^cS

[6] = tested on: Gram-positive ATCC strains (E. faecalis 29212, S. aureus 25923 and 33591); assay: Therapeutic index, Gram-positive ATCC strains; details: for Fold (GM peptide / GM tetrameric peptide): Gram-positive ATCC strains; for Gm, geometric mean of MIC50 values: Gram-positive ATCC strains 29212, 25923, 33591
Source text: (§3) We determined the therapeutic index of each peptide, which we defined as the ratio of Maximum Hemolytic Activity (Hmax) to MIC50 (Hmax/MIC50).
The therapeutic index (TI) is a ratio of the toxic dose of a substance to its therapeutically-active dose and can be calculated different ways (e.g., LD50/ED50). Here, we calculated a TI value for each peptide against all the Gram-positive or the Gram-negative ATCC strains, by dividing its Hmax by its MIC50 for the given group of strains. […] Additionally, to make our quantitative analysis more robust [geometric mean (Khachatryan et al., [2017]) and fold values], we have included MIC50 values for these peptides against S. aureus and K. pneumoniae that we previously obtained using the same assay, the M7-A7 method of the National Committee for Clinical Laboratory Standards (Leon-Calvijo et al., [2015]).

[7] = tested on: clinical isolates of Gram-positive bacteria (Enteroccocus faecium, Staphylococcus aureus); assay: Therapeutic index, Gram-positive clinical isolates; details: for Fold (GM peptide / GM tetrameric peptide): Gram-positive clinical isolates
Source text: as §3
The results are shown in Table 7 (Gram-positive) and Table 8 (Gram-negative). Regarding the Gram-positive bacteria, the palindromic, dimeric and tetrameric peptides were active chiefly against S. aureus. This trend was consistent with results of the experiments on the ATCC strains, in which these peptides were only active against the sensitive strain of the […] bacteria.

[8] = tested on: Staphylococcus aureus ATCC 33591 (resistant); details: S. aureus ATCC 33591, resistant strain; MIC50 previously obtained with the same assay (M7-A7); ref Leon-Calvijo et al., 2015; cited from earlier work
Source text: Table 6 Therapeutic Index values for the RRWQWR-based peptides against the ATCC strains of HCAI-relevant bacteria. | column: Gram positive / MIC (μM) / ^e33591-^fR

[9] = tested on: Klebsiella pneumonia ATCC 13883 (sensitive); details: K. pneumoniae ATCC 13883, sensitive strain; MIC50 previously obtained with the same assay (M7-A7); ref Leon-Calvijo et al., 2015; cited from earlier work
Source text: Table 6 Therapeutic Index values for the RRWQWR-based peptides against the ATCC strains of HCAI-relevant bacteria. | column: Gram negative / MIC (μM) / ^k13883-^cS

Compound | MIC [1] [µM] | Morphology of bacterial cells by SEM after treatment [2] | Morphology of bacterial cells by SEM after treatment [3] | Morphology of bacterial cells by SEM after treatment [4] | MIC [5] [µM] | Fold (GM peptide / GM tetrameric peptide) [6] | Gm, geometric mean of MIC50 values [6] [µM] | Gm, geometric mean of MIC50 values [7] | Fold (GM peptide / GM tetrameric peptide) [7] | MIC [8] [µM] | MIC [9] [µM] | Gm, geometric mean of MIC50 values ([7]; Gram-positive clinical isolates (E. faecium, S. aureus) with a printed MIC50)
N=C(N)NCCC[C@H](NC(=O)[C@H](Cc1c[nH]c2ccccc12)NC(=O)[C@H](CCC(N)=O)NC(=O)[C@H](Cc1c[nH]c2ccccc12)NC(=O)[C@H](CCCNC(=N)N)NC(=O)[C@@H](N)CCCNC(=N)N)C(=O)NCCCC[C@H](NC(=O)[C@H](CCCNC(=N)N)NC(=O)[C@H](Cc1c[nH]c2ccccc12)NC(=O)[C@H](CCC(N)=O)NC(=O)[C@H](Cc1c[nH]c2ccccc12)NC(=O)[C@H](CCCNC(=N)N)NC(=O)[C@@H](N)CCCNC(=N)N)C(=O)NCCCCCC(N)=O [LfcinB (20–25)2] (I: H-RRWQWRK[Ahx]-NH2 / II: H-RRWQWR; amide I:7-II:C; N-terminus assumed) | 7.3 (≈ 16 µg/mL) | random organization with morphological alterations | marked drop in population and severe morphological alterations | clear reduction in population and caused morphological alterations | 3.0 (≈ 6.59 µg/mL) | 3.1 | 9.8 | 16.4 | 2.4 | 24.1 (≈ 52.9 µg/mL) | 9.0 (≈ 19.8 µg/mL) | –
(RRWQWR)4K2Ahx2C2 (disulfide) [LfcinB (20–25)4, branched tetrameric peptide (RRWQWR)4K2Ahx2C2, two dimers linked by a cysteine disulfide bridge] | 6.2 | population decline, cell-size heterogeneity and cell-surface alterations in the form of protrusions | disintegrated and irregularly-shaped mucoid cells | very heterogeneous population and to alterations in the cell surface | 1.7 | 1.0 | 3.1 | – | 1.0 | 5.9 | 12.0 | 7.0
RWQWRWQWR [PLS] | – | – | – | – | – | – | – | 13.7 | – | – | – | –
